Results on two compounds are retold here after patent publication US20160257986A1, “Bacterial Diagnosis” (SRI INTERNATIONAL, priority 2013, published 2016).

Each structure is given as a SMILES string.

Holding throughout (assay type): cell-based
In assay [1] the test system is P. aeruginosa (ATCC 27853). The assay is described as follows: MIC of ciprofloxacin against P. aeruginosa. As to conditions: Pseudomonas aeruginosa, ATCC27853.
The test system of assay [2] is P. aeruginosa (ATCC 27853). Description: Simultaneous antibiotic susceptibility (DHR 123) and species identification (anti-P. aeruginosa antibody) by flow cytometry. The note with it: dihydrorhodamine 123 5 μM; 3 hour and 4 hour timepoints. The protocol: Cultures of P. aeruginosa (ATCC 27853) were inoculated in 3 ml Mueller-Hinton broth (MHB) with an OD600 of 0.06. After 2 hours at 37 C, the cultures were at OD600 of 0.150. At time =0 hours, a test antibiotic (ciprofloxacin) or vehicle (DMSO) was added to each culture along with dihydrorhodamine 123 at 5 μM final concentration. At 3 hour and 4 hour timepoints,1 mL of the P. aeruginosa cells were centrifuged and resuspended in FACS buffer with a primary anti-Pseudomonas antibody (rabbit polyclonal Anti-Pseudomonas antibody (ab68538, abcam, Cambridge, Mass.)), and incubated for 15 minutes. The tubes were then centrifuged and resuspended in FACS buffer with a secondary antibody (goat anti-rabbit labeled with Cy7 dye) for another 15 minutes. The samples were then run directly on a FACScaliber flow cytometer for analysis.

The test system of a further assay is E. coli (ATCC 25922). The assay is described as follows: MIC of norfloxacin against E. coli. The note with it: Escherichia coli, ATCC25922.

Take `O=C(O)c1cn(C2CC2)c2cc(N3CCNCC3)c(F)cc2c1=O` [ciprofloxacin]: in assay [1], the MIC stood at 0.25 µg/mL. For the same compound, in assay [2], the “response of DHR 123 labeling to antibiotic” value is reported as “dose-dependent response”.

Consider `CCn1cc(C(=O)O)c(=O)c2cc(F)c(N3CCNCC3)cc21` [norfloxacin], for which the MIC in the assay on E. coli (ATCC 25922) worked out at 0.064 µg/mL.
